Experimental data published in patent US9840500B2, “Compounds as dual inhibitors of histone methyltransferases and DNA methyltransferases” (FUNDACIÓN PARA LA INVESTIGACIÓN MÉDICA APLICADA, priority 2014, dated 2017).

Tests used:
DNMT3A/3L = DNMT3A/3L (Homo sapiens, UniProt Q9Y6K1); assay: DNMT3A enzyme activity assay (chemiluminescence BPS DNMT Universal Assay Kit); format: biochemical
Experimental: (§1) DNMT3A and DNMT3B activity assays were carried out with the chemiluminiscence BPS DNMT Universal Assay Kit (BPS#52035) using a strip 96-well plate pre-coated with DNMT substrate.
(§2) The enzyme activity assay protocol is as follows: • Rehydrate the microwells by adding 150 μL of TBST buffer (1× Tris-buffered saline (TBS), pH 8.0, containing 0.05% Tween-20) to every well. Incubate 15 minutes at room temperature. • Dilute each purified DNMT [DNMT3A/3L (BPS#51106) or DNMT3B/3L (BPS#51109)] in 1×DNMT assay buffer 2 (BPS#52201) at 5-10 ng/μL. Keep diluted enzyme on ice until use. • Prepare 50 μL of reaction mixture consisting of 20 μL of DNMT (5-10 ng/μL), 12.5 μL of 4×DNMT assay buffer 2 (BPS#52201), 2.5 μL of S-adenosylmethionine 400 μM, test compound at concentrations ranging from 3 nM to 10 μM and H2O up to 50 μL. • Add the entire reaction mixture to the substrate coated wells. […]
(§3) Incubate for 30 min at room temperature with slow shaking. • Wash plate three times with TBST buffer and incubate in Blocking buffer shaking on a rotating platform for 10 min. […] Immediately read luminescence using a BioTek Synergy™2 microplate reader.
(§4) The chemiluminescence intensity data were analyzed and compared. […] Calculated IC50 values were determined using non-linear regression analysis of Sigmoidal dose-response curve generated with a four-parameters inhibition curve.

MV411 = assay: Cell proliferation assay, MV411 / MV4-11 (AML); format: cell-based; conditions: Homo sapiens
Experimental: (§5) Cell proliferation was analyzed after 48 hours of in vitro treatment using the CellTiter 96 Aqueous One Solution Cell Proliferation Assay (Promega, Madison, Wis.). This is a colorimetric method for determining the number of viable cells in proliferation.
(§6) For the assay, suspension cells were cultured by triplicate at a density of 1×10^6 cells/ml in 96-well plates (100.000 cells/well, 100 μl/well), except for OCILY-3 and OCILY-10 cell lines which were cultured at a density of 0.5×10^6 cells/ml (50.000 cells/well, 100 μl/well) and for HepG2, Hep3B and PLC/PRF/5 cell ines which were cultured at a density of 3000 cells/well, 100 μl/well). Adherent cells were obtained from 80-90% confluent flasks and 100 μl of cells were seeded at a density of 5000 cells/well in 96-well plates by triplicate. Before addition of the compounds, adherent cells were allowed to attach to the bottom of the wells for 12 hours. In all cases, only the 60 inner wells were used to avoid any border effects.
(§7) After 48 hours of treatment, plates with suspension cells were centrifuged at 800 g for 10 minutes and medium was removed. The plates with adherent cells were flicked to remove medium. Then, cells were incubated with 100 ul/well of medium and 20 ul/well of CellTiter 96 Aqueous One Solution reagent. After 1-3 hours of incubation at 37° C., absorbance was measured at 490 nm in a 96-well plate reader. The background absorbance was measured in wells with only cell line medium and solution reagent. Data was calculated as a percentage of total absorbance of treated cell/absorbance of non treated cells.
Compounds 3-04 and 3-07 were tested against different solid tumour and oncohematological cell lines using the cell proliferation protocol described above.

OCI-Ly1 = assay: Cell proliferation assay, OCI-Ly1 (GC-DLBCL); format: cell-based; conditions: Homo sapiens, 48 hours
Experimental: as §5
as §6, with “In all cases, only the 60 inner wells were used to avoid any border effects.” left out
as §7, with “The plates with adherent cells were flicked to remove medium. Then, cells were incubated with 100 ul/well of medium and 20 ul/well of CellTiter 96 Aqueous One Solution reagent.” left out, “cells. […]” for “cells.”

HELA = assay: Cell proliferation assay, HELA (Cervical); format: cell-based; conditions: Homo sapiens, 48 hours
Experimental: as §5
as §6, with “In all cases, only the 60 inner wells were used to avoid any border effects.” left out
as §7, with “The plates with adherent cells were flicked to remove medium. Then, cells were incubated with 100 ul/well of medium and 20 ul/well of CellTiter 96 Aqueous One Solution reagent.” left out, “cells. […]” for “cells.”

HBL-2 = assay: Cell proliferation assay, HBL-2 (MCL); format: cell-based; conditions: HBL2, 48 hours
Experimental: as §5
as §6, with “In all cases, only the 60 inner wells were used to avoid any border effects.” left out
as §7, with “The plates with adherent cells were flicked to remove medium. Then, cells were incubated with 100 ul/well of medium and 20 ul/well of CellTiter 96 Aqueous One Solution reagent.” left out, “cells. […]” for “cells.”

HCC95 = assay: Cell proliferation assay, HCC95 (small-cell lung cancer); format: cell-based; conditions: Homo sapiens, non-small-cell lung cancer, 48 hours
Experimental: as §5
as §6, with “In all cases, only the 60 inner wells were used to avoid any border effects.” left out
as §7, with “The plates with adherent cells were flicked to remove medium. Then, cells were incubated with 100 ul/well of medium and 20 ul/well of CellTiter 96 Aqueous One Solution reagent.” left out, “cells. […]” for “cells.”

OCI-Ly7 = assay: Cell proliferation assay, OCI-Ly7 (GC-DLBCL); format: cell-based; conditions: Homo sapiens, 48 hours
Experimental: as §5
as §6, with “In all cases, only the 60 inner wells were used to avoid any border effects.” left out
as §7, with “The plates with adherent cells were flicked to remove medium. Then, cells were incubated with 100 ul/well of medium and 20 ul/well of CellTiter 96 Aqueous One Solution reagent.” left out, “cells. […]” for “cells.”

A498 = assay: Cell proliferation assay, A498 (Renal); format: cell-based; conditions: Homo sapiens, 48 hours
Experimental: as §5
as §6, with “In all cases, only the 60 inner wells were used to avoid any border effects.” left out
as §7, with “The plates with adherent cells were flicked to remove medium. Then, cells were incubated with 100 ul/well of medium and 20 ul/well of CellTiter 96 Aqueous One Solution reagent.” left out, “cells. […]” for “cells.”

LAL-CUN-2 = assay: Cell proliferation assay, LAL-CUN-2 (ALL); format: cell-based
Experimental: as §5, §6, §7

PC3 = assay: Cell proliferation assay, PC3 (Prostate); format: cell-based; conditions: Homo sapiens, PC-3, 48 hours
Experimental: as §5
as §6, with “In all cases, only the 60 inner wells were used to avoid any border effects.” left out
as §7, with “The plates with adherent cells were flicked to remove medium. Then, cells were incubated with 100 ul/well of medium and 20 ul/well of CellTiter 96 Aqueous One Solution reagent.” left out, “cells. […]” for “cells.”

KMS28BM = assay: Cell proliferation assay, KMS28BM (MM); format: cell-based; conditions: KMS-28BM, 48 hours
Experimental: as §5
as §6, with “In all cases, only the 60 inner wells were used to avoid any border effects.” left out
as §7, with “The plates with adherent cells were flicked to remove medium. Then, cells were incubated with 100 ul/well of medium and 20 ul/well of CellTiter 96 Aqueous One Solution reagent.” left out, “cells. […]” for “cells.”

DNMT3B/3L = DNMT3B/3L (Homo sapiens, UniProt Q9UBC3); assay: DNMT3B enzyme activity assay (chemiluminescence BPS DNMT Universal Assay Kit); format: biochemical
Experimental: as §1, §2, §3, §4

RT112 = assay: Cell proliferation assay, RT112 (Bladder); format: cell-based; conditions: Homo sapiens, RT-112, 48 hours
Experimental: as §5
as §6, with “In all cases, only the 60 inner wells were used to avoid any border effects.” left out
as §7, with “The plates with adherent cells were flicked to remove medium. Then, cells were incubated with 100 ul/well of medium and 20 ul/well of CellTiter 96 Aqueous One Solution reagent.” left out, “cells. […]” for “cells.”

OCI-Ly10 = assay: Cell proliferation assay, OCI-Ly10 (ABC-DLBCL); format: cell-based; conditions: Homo sapiens, 48 hours of treatment, Table 3
Experimental: as §5, §6, §7

CEMO-1 = assay: Cell proliferation assay, CEMO-1 (ALL); format: cell-based, human; conditions: Homo sapiens
PEER = assay: Cell proliferation assay, PEER (ALL); format: cell-based; conditions: 48 hours
Experimental: as §5
as §6, with “In all cases, only the 60 inner wells were used to avoid any border effects.” left out
as §7, with “The plates with adherent cells were flicked to remove medium. Then, cells were incubated with 100 ul/well of medium and 20 ul/well of CellTiter 96 Aqueous One Solution reagent.” left out, “cells. […]” for “cells.”

SU-DHL-7 = assay: Cell proliferation assay, SU-DHL-7 (GC-DLBCL); format: cell-based; conditions: 48 hours
Experimental: as §5
as §6, with “In all cases, only the 60 inner wells were used to avoid any border effects.” left out
as §7, with “The plates with adherent cells were flicked to remove medium. Then, cells were incubated with 100 ul/well of medium and 20 ul/well of CellTiter 96 Aqueous One Solution reagent.” left out, “cells. […]” for “cells.”

HUH7 = assay: Cell proliferation assay, HUH7 (Hepatocarcinoma); format: cell-based; conditions: Homo sapiens, Huh-7, 48 hours
Experimental: as §5
as §6, with “In all cases, only the 60 inner wells were used to avoid any border effects.” left out
as §7, with “The plates with adherent cells were flicked to remove medium. Then, cells were incubated with 100 ul/well of medium and 20 ul/well of CellTiter 96 Aqueous One Solution reagent.” left out, “cells. […]” for “cells.”

DU145 = assay: Cell proliferation assay, DU145 (Prostate); format: cell-based; conditions: Homo sapiens, DU-145, 48 hours
Experimental: as §5
as §6, with “In all cases, only the 60 inner wells were used to avoid any border effects.” left out
as §7, with “The plates with adherent cells were flicked to remove medium. Then, cells were incubated with 100 ul/well of medium and 20 ul/well of CellTiter 96 Aqueous One Solution reagent.” left out, “cells. […]” for “cells.”

MGH-U3 = assay: Cell proliferation assay, MGH-U3 (Bladder); format: cell-based; conditions: 48 hours
Experimental: as §5
as §6, with “In all cases, only the 60 inner wells were used to avoid any border effects.” left out
as §7, with “The plates with adherent cells were flicked to remove medium. Then, cells were incubated with 100 ul/well of medium and 20 ul/well of CellTiter 96 Aqueous One Solution reagent.” left out, “cells. […]” for “cells.”

UACC-62 = assay: Cell proliferation assay, UACC-62 (Melanoma); format: cell-based; conditions: Homo sapiens, 48 hours
Experimental: as §5
as §6, with “In all cases, only the 60 inner wells were used to avoid any border effects.” left out
as §7, with “The plates with adherent cells were flicked to remove medium. Then, cells were incubated with 100 ul/well of medium and 20 ul/well of CellTiter 96 Aqueous One Solution reagent.” left out, “cells. […]” for “cells.”

Compound	IC50 (DNMT3A/3L) [nM]	GI50 (MV411; MV4-11, 48 hours, Table 4) [nM]	GI50 (MV411; MV4-11, Table 5 comparison) [nM]	GI50 (HELA) [nM]	GI50 (HCC95) [nM]	GI50 (A498) [nM]	GI50 (LAL-CUN-2; 48 hours of treatment, Table 3) [nM]	GI50 (LAL-CUN-2; ALL, Table 5 comparison) [nM]	GI50 (PC3) [nM]	IC50 (DNMT3B/3L) [nM]	GI50 (RT112) [nM]	GI50 (HUH7) [nM]	GI50 (DU145) [nM]	GI50 (MGH-U3) [nM]	GI50 (UACC-62) [nM]	other results
COc1cc2c(NC3CCN(C)CC3)cc(-c3ccc(C)o3)nc2cc1OCCCN1CCCC1.O=C(O)C(F)(F)F [Compound 3-04, 6-methoxy-2-(5-methyl-2-furyl)-N-(1-methyl-4-piperidyl)-7-(3-pyrrolidin-1-ylpropoxy)quinolin-4-amine; 2,2,2-trifluoroacetic acid]	< 100	100 to 1000	100 to 1000	100 to 1000	100 to 1000	> 10000	100 to 1000	100 to 1000	100 to 1000	100 to 500	100 to 1000	≤ 100	100 to 1000	100 to 1000	100 to 1000	GI50 (OCI-Ly1): 100 to 1000 nM; GI50 (HBL-2): 100 to 1000 nM; GI50 (OCI-Ly7): 100 to 1000 nM; GI50 (KMS28BM): 1000 to 10000 nM; GI50 (OCI-Ly10): 100 to 1000 nM; GI50 (CEMO-1; 48 hours of treatment, Table 3): 100 to 1000 nM; GI50 (CEMO-1; ALL, Table 5 comparison): 100 to 1000 nM; GI50 (PEER): 100 to 1000 nM; GI50 (SU-DHL-7): 100 to 1000 nM
COc1cc2c(NCC3CCN(C)CC3)cc(-c3ccc(C)o3)nc2cc1OCCCN1CCCC1 [Compound 3-07]	< 100	100 to 1000	100 to 1000	100 to 1000	100 to 1000	100 to 1000	100 to 1000	100 to 1000	100 to 1000	500 to 1000	100 to 1000	100 to 1000	100 to 1000	100 to 1000	100 to 1000	–
